# Marks after values point to notes of the source that are not given here.
# Key:
# [1] = tested on: transcription factor NFκB; assay: NFκB activation stimulated by TNFα in HaCat keratinocytes with luciferase reporter gene; format: cell-based, human; conditions: TNFα 0.3 ng/ml; for NFκB activation % Inh / NFκB activation RLU Mean: 5 hours
# Procedure: The cell line used in this study is the HaCat line (human keratinocytes) stably transfected with the luciferase reporter gene.
# These cells are cultured on 24-well plates under the same conditions as in Example 1. They are then preincubated for 60 minutes with the products to be tested, added to the culture medium in the form of a solution in water. A stimulant, TNFα (0.3 ng/ml, diluted in culture medium) is added to the cultures which are then incubated for 5 hours at 37° C. […] A positive control is used in this test, dexamethasone (synthetic glucocorticoid hormone, with an antiinflammatory and immunosuppressant effect, added to the culture medium in the form of a solution in water) tested at 2 μM in the culture medium. Note that 3 independent experiments were conducted. The Bright-Glo™ agent (which induces cell lysis and thus enables luciferase release) and its substrate (luciferin) are added before reading the luminescence. The raw data are analyzed by Excel. The intergroup comparison is performed by one-way ANOVA followed by Dunnett's post-hoc test.
# TSLP = TSLP production by stimulated normal human epidermal keratinocytes (atopic dermatitis model, ELISA); format: cell-based
# Procedure: (§1) The study is performed on normal human epidermal keratinocytes cultured under standard conditions (37° C., 5% CO2). The culture medium is standard (keratinocyte-SFM supplemented with 0.25 ng/ml epidermal growth factor (EGF), 25 μg/ml pituitary extract and 25 μg/ml gentamycin). The test medium is the same without growth factor.
# (§2) To simulate an atopic dermatitis environment, keratinocytes are preincubated for 1 hour in the medium with or without (control) the compounds to be tested, the vehicle (water) or the positive control, bafilomycin (macrolide family) at 30 nM. […] After this preincubation, keratinocytes are stimulated for 24 hours by a mixture of TLR ligands (Poly I:C and PamC3) and inflammatory cytokines (IL-4 and IL-13) added to the cells. An unstimulated control condition is also done at the same time. The cells are incubated for 24 hours.
# (§3) The culture supernatants are collected, centrifuged and frozen at −80° C. TSLP and IL-8 are quantified by ELISA.
# (§4) Three independent experiments are conducted. Statistical analysis is determined by one-way ANOVA followed by Dunnett's post-hoc test.
# IL-8 = IL-8 production by stimulated normal human epidermal keratinocytes (atopic dermatitis model, ELISA); format: cell-based
# Procedure: as §1, §2, §3, §4
# [2] = pH ranging from 4 to 10 at ambient temperature; cited from earlier work
# [3] = tested on: prostaglandin PG6KF1α production, HaCat line (human keratinocytes); assay: PG6KF1α release by HaCat keratinocytes stimulated with calcium ionophore A23187 (ELISA); format: cell-based; conditions: A23187 5 μM 5 h
# Procedure: The cell line used in this study is the HaCat line (human keratinocytes).
# The cells are cultured in DMEM (Dulbecco's Modified Eagle Medium) supplemented with foetal calf serum in an environment at 37° C. and 5% CO2 on 24-well plates. They are then preincubated for 60 minutes, still at 37° C., with the products to be tested dissolved in water. A stimulant the arachidonic acid pathway is added for 5 hours. This is the stimulation phase; the stimulant is the calcium ionophore A23187 (solution in 0.01% DMSO) used at 5 μM. […] After 5 hours of stimulation, still in the same medium, the culture supernatant of each well is drawn off, centrifuged at 3000 RPM then stored at −20° C. The production of prostaglandin PG6KF1α in culture supernatant is measured with the Euromedex Elisa kit according to the supplier's instructions. Statistical analysis is performed by ANOVA followed by Dunnett's post-hoc test. Note that 3 independent experiments were conducted. The results for each product and for each dose are averaged from measurements performed on 3 wells. Thus, the control group (with no stimulant) makes it possible to quantify basal PG6KF1α production.
# [4] = bafilomycin 30 nM, stimulation by Poly I:C, PamC3, IL-4 and IL-13
# [5] = natural dextran sulfate (Dextralip, 9000-20000 Da) 0.3 mg/ml
# [6] = natural dextran sulfate (Dextralip, 9000-20000 Da) 1 mg/ml
# [7] = natural dextran sulfate (Dextralip, 9000-20000 Da) 3 mg/ml
# [8] = dextran sulfate (Dextralip, 9000-20000 Da) 0.3 μg/ml, Poly I:C, PamC3, IL-4, IL-13
# [9] = dextran sulfate (Dextralip, 9000-20000 Da) 0.3 μg/ml, Poly I:C, PamC3, IL-4, IL-13, listed as dextran sulfate
# [10] = dextran sulfate (Dextralip, 9000-20000 Da) 3 μg/ml, Poly I:C, PamC3, IL-4, IL-13
# [11] = dextran sulfate (Dextralip, 9000-20000 Da) 30 μg/ml, Poly I:C, PamC3, IL-4, IL-13
# [12] = natural dextran sulfate 9000-20000 Da (Dextralip) 10 μg/ml
# [13] = natural dextran sulfate 9000-20000 Da (Dextralip) 30 μg/ml
# [14] = natural dextran sulfate 9000-20000 Da (Dextralip) 100 μg/ml
# [15] = natural dextran sulfate 9000-20000 Da (Dextralip) 300 μg/ml
# [16] = natural dextran sulfate 9000-20000 Da (Dextralip) 1000 μg/ml
# [17] = natural dextran sulfate 9000-20000 Da (Dextralip) 3000 μg/ml
# [18] = synthetic dextran sulfate 4000-8000 Da 10 μg/ml
# [19] = synthetic dextran sulfate 4000-8000 Da 30 μg/ml
# [20] = synthetic dextran sulfate 4000-8000 Da 100 μg/ml
# [21] = synthetic dextran sulfate 4000-8000 Da 300 μg/ml
# [22] = synthetic dextran sulfate 4000-8000 Da 1000 μg/ml
# [23] = synthetic dextran sulfate 4000-8000 Da 3000 μg/ml
molecule,measurement,setting,value
"C[C@@H]1C[C@H]2[C@@H]3CCC4=CC(=O)C=C[C@]4(C)[C@@]3(F)[C@@H](O)C[C@]2(C)[C@@]1(O)C(=O)CO [Dexa, dexamethasone, reference compound]",inhibition at 2 µM,"[1]; Homo sapiens, HaCaT, 5 h, dexamethasone 2 μM, read-out: NFκB activation % Inh",> 40%
same,NFκB activation % Inh,[1]; dexamethasone 2 μM,41%
same,NFκB activation RLU Mean,[1]; dexamethasone 2 μM,14206 RLU
"CO/C1=C\C(C)=C\[C@@H](C)[C@@H](O)[C@@H](C)C/C(C)=C/C=C/[C@H](OC)[C@@H]([C@@H](C)[C@@H](O)[C@H](C)[C@@]2(O)C[C@@H](O)[C@H](C)[C@@H](C(C)C)O2)OC1=O [Bafilomycin, bafilomycin, reference compound]",TSLP production at 24 h % Inh,TSLP; [4],70* %
same,TSLP production at 24 h Mean,TSLP; [4],81 pg/mL
same,Production of IL-8 at 24 h Mean,IL-8; [4],26022 pg/mL
Sodium dextran sulphate [Dextran sulfate],NFκB activation % Inh,[1]; [5],does not reduce NFκB activation
same,NFκB activation RLU Mean,[1]; [5],27024 RLU
same,NFκB activation % Inh,"[1]; natural dextran sulfate (Dextralip, 9000-20000 Da) 0.3 mg/ml, listed as Dex S.",−13%
same,NFκB activation % Inh,[1]; [6],does not reduce NFκB activation
same,NFκB activation RLU Mean,[1]; [6],23229 RLU
same,NFκB activation % Inh,"[1]; natural dextran sulfate (Dextralip, 9000-20000 Da) 1 mg/ml, listed as Dex S.",3%
same,NFκB activation % Inh,[1]; [7],42%
same,NFκB activation RLU Mean,[1]; [7],13836 RLU
same,TSLP production at 24 h % Inh,TSLP; [8],0%
same,TSLP production at 24 h Mean,TSLP; [8],247 pg/mL
same,TSLP production at 24 h % Inh,TSLP; [9],does not induce reduction in TSLP production
same,TSLP production at 24 h % Inh,TSLP; [10],90%
same,TSLP production at 24 h Mean,TSLP; [10],34 pg/mL
same,TSLP production at 24 h % Inh,TSLP; [11],96%
same,TSLP production at 24 h Mean,TSLP; [11],19 pg/mL
same,stability in solutions,[2],high stability
same,Production of IL-8 at 24 h % Inh,IL-8; [8],0%
same,Production of IL-8 at 24 h Mean,IL-8; [8],63672 pg/mL
same,Production of IL-8 at 24 h % Inh,IL-8; [9],not sufficient to inhibit IL-8 production
same,Production of IL-8 at 24 h % Inh,IL-8; [10],82** %
same,Production of IL-8 at 24 h Mean,IL-8; [10],10837 pg/mL
same,Production of IL-8 at 24 h % Inh,"IL-8; dextran sulfate (Dextralip, 9000-20000 Da) 3 μg/ml, Poly I:C, PamC3, IL-4, IL-13, listed as dextran sulfate",more than 80%
same,Production of IL-8 at 24 h % Inh,IL-8; [11],100%
same,Production of IL-8 at 24 h Mean,IL-8; [11],170 pg/mL
same,PG6KF1α % Inh,[3]; [12],36%
same,PG6KF1α (pg/ml) Mean,[3]; [12],1878.6 pg/mL
same,PG6KF1α % Inh,[3]; [13],23%
same,PG6KF1α (pg/ml) Mean,[3]; [13],2113.4 pg/mL
same,PG6KF1α % Inh,[3]; [14],14%
same,PG6KF1α (pg/ml) Mean,[3]; [14],2287.5 pg/mL
same,PG6KF1α % Inh,[3]; [15],32%
same,PG6KF1α (pg/ml) Mean,[3]; [15],1950.9 pg/mL
same,PG6KF1α % Inh,[3]; [16],43%
same,PG6KF1α (pg/ml) Mean,[3]; [16],1737.6 pg/mL
same,PG6KF1α % Inh,[3]; [17],37%
same,PG6KF1α (pg/ml) Mean,[3]; [17],1843.8 pg/mL
same,PG6KF1α % Inh,[3]; [18],35%
same,PG6KF1α (pg/ml) Mean,[3]; [18],1536.5 pg/mL
same,PG6KF1α % Inh,[3]; [19],23%
same,PG6KF1α (pg/ml) Mean,[3]; [19],1719.7 pg/mL
same,PG6KF1α % Inh,[3]; [20],14%
same,PG6KF1α (pg/ml) Mean,[3]; [20],1848.5 pg/mL
same,PG6KF1α % Inh,[3]; [21],29%
same,PG6KF1α (pg/ml) Mean,[3]; [21],1626.6 pg/mL
same,PG6KF1α % Inh,[3]; [22],40%
same,PG6KF1α (pg/ml) Mean,[3]; [22],1462.5 pg/mL
same,PG6KF1α % Inh,[3]; [23],39%
same,PG6KF1α (pg/ml) Mean,[3]; [23],1486.2 pg/mL

# Source: US20220175820A1 (PIERRE FABRE DERMO-COSMETIQUE, priority 2019, published 2022)
